According to PubChem BioAssay (NCI):
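Step 1: Grow cells in 96-well plates. Step 2: Expose to compound for 48 hours at 5 concentrations. Step 3: Interpolate endpoints linearly; if unreached, use highest concentration. GI50 is the concentration that inhibits growth by half. TGI: total growth inhibition.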

Key:
Assay in all cases: inhibition of tumour cell growth, NCI panel, 48 h
CCRF-CEM leukemia = tested on: CCRF-CEM leukemia
COLO 205 colon = tested on: COLO 205 colon
HCT-15 colon = tested on: HCT-15 colon
KM12 colon = tested on: KM12 colon
M14 melanoma = tested on: M14 melanoma
SK-MEL-2 melanoma = tested on: SK-MEL-2 melanoma
TK-10 renal = tested on: TK-10 renal
U251 CNS = tested on: U251 CNS
UACC-62 melanoma = tested on: UACC-62 melanoma
MDA-MB-435 = tested on: MDA-MB-435

Row | SMILES | TGI (CCRF-CEM leukemia) [µM] | TGI (COLO 205 colon) [µM] | TGI (HCT-15 colon) [µM] | TGI (KM12 colon) [µM] | TGI (M14 melanoma) [µM] | TGI (SK-MEL-2 melanoma) [µM] | TGI (TK-10 renal) [µM] | TGI (U251 CNS) [µM] | TGI (UACC-62 melanoma) [µM] | TGI (MDA-MB-435) [µM] | GI50 (CCRF-CEM leukemia) [µM] | GI50 (COLO 205 colon) [µM] | GI50 (HCT-15 colon) [µM] | GI50 (M14 melanoma) [µM] | GI50 (SK-MEL-2 melanoma) [µM] | GI50 (TK-10 renal) [µM] | GI50 (U251 CNS) [µM] | GI50 (UACC-62 melanoma) [µM] | GI50 (KM12 colon) [µM] | GI50 (MDA-MB-435) [µM]
1 | COc1ccc2nc(NC(=O)C(=O)CC(=O)c3ccc(Cl)cc3)sc2c1 | > 100 | > 100 | > 100 | > 100 | > 100 | > 100 | > 100 | > 100 | > 100 | – | – | – | – | – | – | – | – | – | – | –
2 | COc1cc2c(OC)c(c1)CCCC1=CC(=O)C=C(CCC2)C1=O | 20.1 | > 31.6 | 98.4 | 59.6 | > 64.5 | – | > 100 | > 100 | > 100 | 56.2 | – | – | – | – | – | – | – | – | – | –
3 | Cn1c2ccc([N+](=O)[O-])cc2c(=O)c2c(O)cc(O)cc21 | > 100 | > 100 | > 100 | > 100 | > 100 | – | > 100 | 37.3 | > 100 | > 100 | – | – | – | – | – | – | – | – | – | –
4 | CCOC(=O)C#Cc1ccc(C#CC(=O)OCC)cc1 | > 20.8 | 16.5 | > 20.2 | > 21.2 | > 20.7 | – | 17.8 | – | > 23.4 | 3.86 | – | – | – | – | – | – | – | – | – | –
5 | Cc1c(C(=O)CC(=O)C(=O)Nc2cccc(C(F)(F)F)c2)[n+](=O)c2ccccc2n1[O-] | 7.24 | 13.4 | 10.3 | 21.7 | 11.4 | 18.5 | 79.7 | 11 | 7.55 | – | – | – | – | – | – | – | – | – | – | –
6 | CN(C)c1ccc(/C=C2\N=C(c3ccc(N)cc3)OC2=O)cc1 | > 100 | > 100 | > 100 | > 100 | > 100 | > 100 | > 100 | > 100 | > 100 | – | – | – | – | – | – | – | – | – | – | –
7 | CCc1nc2ccc(Cc3ccc(C(=O)NO)cc3)cc2c(=O)n1CCc1ccccc1 | > 100 | 2.55 | 3.07 | – | 3.24 | 3.95 | 2.89 | 2.28 | 2.64 | – | 0.568 | 0.871 | 0.528 | 1.27 | 1.62 | 1.28 | 0.963 | 0.52 | – | –
8 | CC(C)(C)C(=O)C(c1ccc(-c2cscn2)cc1)c1ccc(-c2cscn2)cc1 | > 100 | > 100 | > 100 | > 100 | > 100 | 68.5 | 92 | > 60.8 | > 71.4 | – | – | – | – | – | – | – | – | – | – | –
9 | O=C(c1ccc(NCN2C(=O)CCC2=O)cc1)c1ccc(NCN2C(=O)CCC2=O)cc1 | > 100 | > 100 | > 100 | > 100 | > 100 | > 100 | > 100 | > 100 | > 100 | – | – | – | – | – | – | – | – | – | – | –
10 | O=C(N/N=C/c1cc(Br)cc(Br)c1[O-])c1ccccc1O.O=C(N/N=C/c1cc(Br)cc(Br)c1[O-])c1ccccc1O.[Mn+2] | 6.42 | 13.2 | 19.9 | 22.9 | 3.48 | 22.3 | 31 | 14.8 | 17.2 | – | 0.263 | – | – | – | – | – | – | – | – | –
11 | O[C@]12CCCC[C@H]1CCC2 | > 100 | > 100 | > 100 | > 100 | > 100 | > 100 | > 100 | > 100 | > 100 | – | – | – | – | – | – | – | – | – | – | –
12 | Clc1cc(Cl)cc(N2N=C(c3cccc(Nc4ccncc4)c3)CC2c2ccc(Br)cc2)c1 (stereo not given) | 31.2 | 3.86 | 3.49 | 3.18 | 3.63 | – | 3.6 | – | 3.13 | 3 | 3.02 | 1.82 | 1.8 | 1.8 | – | 1.86 | – | 1.68 | 1.69 | 1.61
13 | CCOC(=O)[C@@H](C)C[C@H](Cc1ccccc1)NC(=O)c1csc([C@@H](C[C@H](C(C)C)N(C)C(=O)[C@H](CCC(C)C)NC(=O)[C@H]2CCCCN2C)OC(C)=O)n1 | 4.35 | 0.0352 | 4.19 | 4.81 | – | 6.65 | > 33.3 | 5.92 | 6.92 | – | 0.006 | 0.00439 | 0.0138 | – | < 0.00333 | 4.12 | 0.00758 | < 0.00333 | < 0.00333 | –
14 | CC(=O)O[C@@H]1CC(C)C2CC2C2=C(C(O)OC2O)[C@@H]1C(C)CCC=C(C)C (stereo not given in full) | 51.9 | 32.5 | 49.5 | – | > 100 | > 100 | 90 | 41.1 | 67.3 | – | – | – | – | – | – | – | – | – | – | –
15 | O=C1NC2(O)c3ccccc3C(=O)C2(O)N1c1ccccc1 (stereo not given) | > 100 | > 100 | > 100 | > 100 | > 100 | > 100 | > 100 | > 100 | > 100 | – | – | – | – | – | – | – | – | – | – | –
16 | Cc1ccc(C(=O)N/N=C/c2cccc(Oc3ccccc3)c2)cn1 | > 100 | 38.1 | > 100 | > 100 | > 100 | > 100 | > 100 | > 100 | > 100 | – | 4.25 | 5.66 | 3.89 | 6.08 | > 24.6 | 14.4 | 6.03 | 4.67 | 3.69 | –
17 | CC(=S)NNC(=O)c1ccncc1 | > 100 | > 100 | > 100 | > 100 | > 100 | > 100 | > 100 | > 100 | > 100 | – | – | – | – | – | – | – | – | – | – | –
18 | c1cncc(CNc2ccccc2-c2nnc(Nc3ccc4c(c3)OCCO4)o2)c1 | 51.4 | 0.817 | > 100 | 1.86 | > 100 | > 100 | > 100 | > 100 | > 100 | – | 0.126 | 0.146 | 0.107 | 0.0704 | 0.217 | 17 | 0.157 | 0.0522 | 0.067 | –
19 | Cc1cc2c(c(C#N)c1C)NC(=O)C(CC(=O)O)C2=O (stereo not given) | > 100 | > 100 | > 100 | > 100 | > 100 | > 100 | > 100 | > 100 | > 100 | – | – | – | – | – | – | – | – | – | – | –
20 | COc1cc2c(cc1OC)[C@@H](C(O)c1ccccc1)NCC2 (stereo not given in full) | > 100 | > 100 | > 100 | > 100 | > 100 | > 100 | > 100 | > 100 | > 100 | – | – | – | – | – | – | – | – | – | – | –
21 | COC1=C(C(=O)OC(C)(C)C)[C@]2(C)C(C(=O)OC(C)(C)C)C(OC)=C(C(=O)OC(C)(C)C)[C@]2(C)C1C(=O)OC(C)(C)C (stereo not given in full) | > 100 | > 100 | > 100 | > 100 | > 100 | > 100 | > 100 | > 100 | > 100 | – | – | – | – | – | – | – | – | – | – | –
22 | CC(=O)OC[C@@H]1[C@H]2CC(=O)O[C@H]2C[C@H]1OC(C)=O | > 100 | > 100 | > 100 | > 100 | > 100 | – | > 100 | > 100 | > 100 | – | – | – | – | – | – | – | – | – | – | –
23 | COc1ccc(C=NC23CC4CC(CC(C4)C2)C3)cc1 | > 100 | > 10 | > 100 | > 100 | > 100 | > 100 | > 100 | > 100 | > 100 | – | – | – | – | – | – | – | – | – | – | –
24 | COc1ccc(C(=O)/C=C/c2cc(C(=O)c3cc(OC)c(OC)c(OC)c3)ccc2OC)cc1 | – | – | – | – | > 100 | > 100 | > 100 | > 100 | – | – | – | – | – | 4.92 | 6.04 | 14 | 3.11 | – | – | –
25 | O=C(Nc1nccs1)c1cc(C2=CC=CC([N+](=O)[O-])C=C2)nc(=S)[nH]1 (stereo not given) | > 100 | > 100 | > 100 | > 100 | > 100 | > 100 | > 100 | > 100 | > 100 | – | – | – | – | – | – | – | – | – | – | –
26 | COC1CC(OS(=O)(=O)c2ccc(C)cc2)C(OS(=O)(=O)c2ccc(C)cc2)C(COS(=O)(=O)c2ccc(C)cc2)O1 (stereo not given) | > 100 | > 100 | 19 | > 100 | 17.8 | 20.1 | – | 11.6 | 18.6 | – | – | – | – | – | – | – | – | – | – | –
27 | C=CCN=C1N=C(CC(=O)OCC)CS1 | > 100 | > 100 | > 100 | > 100 | > 100 | > 100 | > 100 | > 100 | > 100 | – | – | – | – | – | – | – | – | – | – | –
28 | CCOC(=O)NC(=O)c1cn(CCCOC(=O)CCCCCCCCC(=O)OCCCn2cc(C(=O)NC(=O)OCC)c(=O)[nH]c2=O)c(=O)[nH]c1=O | 21.6 | 64.4 | 68.8 | – | 76 | – | 57.9 | 41.4 | 69.1 | – | – | – | – | – | – | – | – | – | – | –
29 | N#CC1(c2nc3ccccc3o2)C(=O)C(=O)N(c2ccc(Cl)c(Cl)c2)C(=O)C1=O | > 100 | > 100 | > 100 | > 100 | > 100 | > 100 | > 100 | – | – | – | – | – | – | – | – | – | – | – | – | –
30 | CC[O-].CC[O-].O=Nc1ccc2cc([O-])ccc2c1.O=Nc1ccc2cc([O-])ccc2c1.[Ti+4] | > 27.3 | 6.54 | – | 4.65 | – | 4.75 | 8.17 | 3.48 | – | – | 2.71 | 2.2 | – | – | 2.13 | 3.67 | 1.77 | 2.44 | 1.94 | –
